# From ChEMBL document CHEMBL1817545, “Synthesis and molecular modeling of 1H-pyrrolopyrimidine-2,4-dione derivatives as ligands for the α1-adrenoceptors” (Bioorg Med Chem, 2011)
# How the values were obtained:
# [1] = target: T1, Adrenergic receptor alpha-1 (Rattus norvegicus, UniProt P15823+P23944+P43140); test: Displacement of [3H]prazosin from alpha1-ARs in CRL:CD(SD)BR-COBS rat brain cortex after 30 mins by liquid scintillation spectrometry
# T1 sequence (P15823 whole entry): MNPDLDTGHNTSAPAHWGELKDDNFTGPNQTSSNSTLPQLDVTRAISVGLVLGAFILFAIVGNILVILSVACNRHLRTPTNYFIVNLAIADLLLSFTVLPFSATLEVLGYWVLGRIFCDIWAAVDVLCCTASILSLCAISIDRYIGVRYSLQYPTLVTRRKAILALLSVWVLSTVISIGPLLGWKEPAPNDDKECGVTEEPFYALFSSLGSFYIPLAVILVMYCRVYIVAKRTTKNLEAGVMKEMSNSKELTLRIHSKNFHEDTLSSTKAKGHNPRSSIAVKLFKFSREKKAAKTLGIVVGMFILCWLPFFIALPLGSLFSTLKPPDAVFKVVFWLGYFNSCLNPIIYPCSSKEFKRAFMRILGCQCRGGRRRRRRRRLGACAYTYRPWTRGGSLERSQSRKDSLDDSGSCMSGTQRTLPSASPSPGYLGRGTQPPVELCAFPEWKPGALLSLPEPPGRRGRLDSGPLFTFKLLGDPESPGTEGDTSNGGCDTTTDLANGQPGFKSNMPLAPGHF
# T1 sequence (P23944 whole entry): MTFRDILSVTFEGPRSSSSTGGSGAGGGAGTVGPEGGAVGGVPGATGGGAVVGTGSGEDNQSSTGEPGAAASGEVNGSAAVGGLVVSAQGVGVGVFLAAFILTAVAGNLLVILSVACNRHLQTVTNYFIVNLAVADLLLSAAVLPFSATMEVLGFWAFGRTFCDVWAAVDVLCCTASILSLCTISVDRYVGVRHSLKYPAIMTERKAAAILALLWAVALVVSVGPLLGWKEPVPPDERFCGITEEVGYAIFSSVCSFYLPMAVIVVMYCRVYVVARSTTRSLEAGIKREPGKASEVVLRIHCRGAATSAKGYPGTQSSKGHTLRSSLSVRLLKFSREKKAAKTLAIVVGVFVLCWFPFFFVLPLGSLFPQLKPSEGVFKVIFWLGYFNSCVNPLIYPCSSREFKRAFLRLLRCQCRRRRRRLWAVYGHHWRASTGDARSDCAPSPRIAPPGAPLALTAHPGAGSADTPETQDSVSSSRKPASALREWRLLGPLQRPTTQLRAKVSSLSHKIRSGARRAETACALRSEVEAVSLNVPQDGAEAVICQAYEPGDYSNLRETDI
# T1 sequence (P43140 whole entry): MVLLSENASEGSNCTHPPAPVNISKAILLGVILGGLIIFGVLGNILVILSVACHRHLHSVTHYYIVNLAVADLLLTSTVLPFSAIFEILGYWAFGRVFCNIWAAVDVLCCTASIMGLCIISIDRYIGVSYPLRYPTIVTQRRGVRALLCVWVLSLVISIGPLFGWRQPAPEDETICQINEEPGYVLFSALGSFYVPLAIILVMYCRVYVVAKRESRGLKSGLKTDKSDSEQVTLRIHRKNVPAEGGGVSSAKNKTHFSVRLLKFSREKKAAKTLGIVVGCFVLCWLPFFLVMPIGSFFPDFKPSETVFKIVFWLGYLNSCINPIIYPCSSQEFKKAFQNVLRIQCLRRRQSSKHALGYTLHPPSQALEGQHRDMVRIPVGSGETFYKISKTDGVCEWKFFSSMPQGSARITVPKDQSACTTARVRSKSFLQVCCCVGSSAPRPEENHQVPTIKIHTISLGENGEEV
# Rattus norvegicus = species: Rattus norvegicus; test: Ratio of Ki for CRL:CD(SD)BR-COBS rat brain hippocampus 5HT1A to Ki for CRL:CD(SD)BR-COBS rat brain cortex alpha1-AR; format: tissue-based
# [2] = target: T2, 5-hydroxytryptamine receptor 1A (Rattus norvegicus, UniProt P19327); test: Displacement of [3H]-8-OH-DPAT from 5HT1A in CRL:CD(SD)BR-COBS rat brain hippocampus after 30 mins by liquid scintillation spectrometry; format: tissue-based
# T2 sequence (P19327 whole entry): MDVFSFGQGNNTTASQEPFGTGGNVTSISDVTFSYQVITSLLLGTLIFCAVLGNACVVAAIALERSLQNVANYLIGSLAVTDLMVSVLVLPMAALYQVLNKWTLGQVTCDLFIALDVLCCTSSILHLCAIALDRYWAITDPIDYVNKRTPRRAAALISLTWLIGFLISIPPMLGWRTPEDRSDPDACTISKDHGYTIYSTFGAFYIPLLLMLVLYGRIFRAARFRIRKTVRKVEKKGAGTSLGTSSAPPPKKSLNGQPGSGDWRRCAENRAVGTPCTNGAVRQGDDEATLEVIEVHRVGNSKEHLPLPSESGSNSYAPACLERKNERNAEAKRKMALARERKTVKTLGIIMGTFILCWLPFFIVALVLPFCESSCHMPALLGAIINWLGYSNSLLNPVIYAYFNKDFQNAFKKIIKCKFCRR
SMILES,Ki [1] [nM],Ratio Ki (Rattus norvegicus),Ki [2] [nM]
O=c1[nH]c2[nH]c(-c3ccc(Oc4ccccc4)cc3)cc2c(=O)n1CCN1CCN(c2ccccc2Cl)CC1,125,37.8,4720
O=c1[nH]c2c(-c3ccc(Cl)cc3)c[nH]c2c(=O)n1CCN1CCN(c2ccccc2Cl)CC1,2.71,> 3500,> 10000
CC(C)(C)c1cc2[nH]c(=O)n(CCN3CCN(c4ccccc4Cl)CC3)c(=O)c2[nH]1,1.39,46.9,65.1
O=c1[nH]c2cc(-c3ccco3)[nH]c2c(=O)n1CCN1CCN(c2ccccc2Cl)CC1,14.17,15.5,220
O=c1c2cc(-c3ccccc3)[nH]c2n(Cc2ccccc2)c(=O)n1CCN1CCN(c2ccccc2Cl)CC1,35.41,28.8,1020
COc1ccccc1N1CCN(CCn2c(=O)[nH]c3c(-c4ccccc4)c[nH]c3c2=O)CC1,2.08,6.44,13.4
O=c1[nH]c2cc(-c3ccc(Cl)cc3)[nH]c2c(=O)n1CCN1CCN(c2ccccc2Cl)CC1,–,> 800,–
O=c1[nH]c2c(-c3ccccc3)c[nH]c2c(=O)n1CCN1CCN(c2ccccc2Cl)CC1,1.14,37.8,43.1
COc1ccccc1N1CCN(CCn2c(=O)[nH]c3cc(-c4ccco4)[nH]c3c2=O)CC1,3.38,8.54,28.9
COc1ccc(-c2cc3c(=O)n(CCN4CCN(c5ccccc5Cl)CC4)c(=O)n(Cc4ccccc4OC)c3[nH]2)cc1,89.2,52.3,4670
COc1ccccc1N1CCN(CCn2c(=O)[nH]c3[nH]c(-c4ccc(-c5ccccc5)cc4)cc3c2=O)CC1,54.3,67.8,3680
Cc1ccc(-c2c[nH]c3c(=O)n(CCN4CCN(c5ccccc5Cl)CC4)c(=O)[nH]c23)cc1,4.96,> 2000,> 10000
COc1ccc(-c2cc3c(=O)n(CCN4CCN(c5ccccc5OC)CC4)c(=O)n(Cc4ccccc4OC)c3[nH]2)cc1,15.86,11.6,184
COc1ccccc1N1CCN(CCn2c(=O)c3cc(-c4ccccc4)[nH]c3n(Cc3ccccc3)c2=O)CC1,24.5,8.08,198
O=c1[nH]c2c(-c3ccccc3Cl)c[nH]c2c(=O)n1CCN1CCN(c2ccccc2Cl)CC1,1.14,71.5,81.5
COc1ccccc1N1CCN(CCn2c(=O)[nH]c3[nH]c(-c4ccc(OCc5ccccc5)cc4)cc3c2=O)CC1,10.31,76,784
COc1ccccc1N1CCN(CCn2c(=O)[nH]c3[nH]c(-c4ccc(Cl)cc4)cc3c2=O)CC1,4.08,98.4,401
O=c1[nH]c2[nH]c(-c3ccc(Cl)cc3)cc2c(=O)n1CCN1CCN(c2ccccc2Cl)CC1,2.64,> 500,1510
O=c1[nH]c2[nH]c(-c3ccc(-c4ccccc4)cc3)cc2c(=O)n1CCN1CCN(c2ccccc2Cl)CC1,183,> 54.6,> 10000
O=c1[nH]c2[nH]c(-c3ccccc3)c(-c3ccccc3)c2c(=O)n1CCN1CCN(c2ccccc2Cl)CC1,11.9,129,1540
COc1ccccc1N1CCN(CCn2c(=O)[nH]c3cc(C(C)(C)C)[nH]c3c2=O)CC1,1.69,27.7,46.7
COc1ccccc1N1CCN(CCn2c(=O)[nH]c3cc(-c4ccc(Cl)cc4)[nH]c3c2=O)CC1,–,> 1000,–
O=c1[nH]c2[nH]c(-c3ccc(OCc4ccccc4)cc3)cc2c(=O)n1CCN1CCN(c2ccccc2Cl)CC1,70.91,> 141,> 10000
O=c1[nH]c2[nH]c(-c3ccc(OCCOc4ccccc4)cc3)cc2c(=O)n1CCN1CCN(c2ccccc2Cl)CC1,126,> 79,> 10000
COc1ccccc1N1CCN(CCn2c(=O)[nH]c3[nH]c(-c4ccc(Oc5ccccc5)cc4)cc3c2=O)CC1,43.71,0.39,17.1
COc1ccccc1N1CCN(CCn2c(=O)[nH]c3[nH]c(-c4ccc(OCCOc5ccccc5)cc4)cc3c2=O)CC1,53.63,> 186,> 10000
COc1ccccc1N1CCN(CCn2c(=O)[nH]c3[nH]c(-c4ccccc4)c(-c4ccccc4)c3c2=O)CC1,4.82,96.7,466
COc1ccccc1N1CCN(CCn2c(=O)[nH]c3c(-c4ccc(Cl)cc4)c[nH]c3c2=O)CC1,3.36,9.7,32.6
